# How the values were obtained:
# [1] = system: plasma plasminogen activator inhibitor-1 (PAI-1); experiment: Plasma PAI-1 content in SHR after 4-week treatment; assay type: in vivo, rat
# blood homocysteine = details: rats, hyperhomocysteinemia induced by guanidinoacetic acid injection, EA injected; cited from earlier work
# NO = NO content in NAME-induced hypertensive rat model; assay type: in vivo; details: NAME-induced hypertensive rats
# Procedure: (§1) The biochemical markers relating to the blood pressure were measured, by collecting blood and organs of the rats used in the experimental examples 1 (non-genetic NAME-induced hypertension) and 3 (4-week-treatments on SHR). […] And from the rats of the experimental example 3, ACE activity and the activity of plasma plasminogen activator inhibitor-1 (PAI-1) of the plasma and the livers were measured. […] The following TABLE 5 is describing NO content and NOS activity of shiitake mushroom mycelium culture and natto bacteria culture mixture in the NAME-induced hypertensive rat model.
# NOS = NOS activity in NAME-induced hypertensive rat model; assay type: in vivo; details: NAME-induced hypertensive rats
# Procedure: as §1
smiles,measurement,setting,value
"C[C@H](CS)C(=O)N1CCC[C@H]1C(=O)O [CP, captopril]",Plasma PAI-1,[1]; 0 week,113 pg/mL
same,Plasma PAI-1,[1]; 4 weeks,127 pg/mL
"Nc1ncnc2c1ncn2C[C@@H](O)[C@@H](O)C(=O)O [EA, eritadenine]",blood homocysteine,blood homocysteine,reduced
NNc1nncc2ccccc12 [hydralazine],NO Lung,NO; 0 week,10 nM/ml
same,NO Lung,NO; 4 weeks,7 nM/ml
same,NO Plasma,NO; 0 week,21 nM/ml
same,NO Plasma,NO; 4 weeks,20 nM/ml
same,NOS Aorta,NOS; 0 week,0.80 NO pmle/mg protein/min
same,NOS Aorta,NOS; 4 weeks,1.08 NO pmle/mg protein/min
same,NOS Plasma,NOS; 0 week,6.0 NO umole/L
same,NOS Plasma,NOS; 4 weeks,8.5 NO umole/L
